Experimental data: patent US20150072988A1, “USE OF N-(4-((3-(2-AMINO-4-PYRIMIDINYL)-2-PYRIDINYL)OXY)PHENYL)-4-(4-METHYL-2-THIENYL)-1-PHTHALAZINAMINE IN COMBINATION WITH HISTONE DEACETYLASE INHIBITORS FOR TREATMENT OF CANCER” (THE JOHNS HOPKINS UNIVERSITY, priority 2012, published 2015)

Test system: phospho-histone H3
Assay: Immunoblotting of phospho-histone H3 in prostate cells
Format: cell-based
Settings: single agent treatment
Method: Prostate cancer cell lines (DU-145, LNCaP, PC3) were obtained from ATCC. Cells were grown in RPMI-1640 (Invitrogen) with 10% Fetal Bovine Serum (FBS) (Gemini) and maintained in a […] humidified incubator supplemented with 5% CO2. Sodium salt of VPA (Sigma-Aldrich) was prepared in RPMI at a 1M stock on the day of treatment of the cells. Vorinostat (SAHA) (AtonPharma) and AMG 900 (Amgen) were maintained in 10 mM DMSO stock solutions at −20° C. and diluted in RPMI upon use. For combination studies, compounds were administered concomitantly.
Western blotting was performed as described previously. Kachhap S K, Rosmus N, et al. “Downregulation of homologous recombination repair genes by HDAC inhibition in prostate cancer is mediated through the E2F1 transcription factor”, PLoS One 2010;5:e11208. Loading volumes equalized to 20 μg of total protein were used. Primary antibodies were diluted 1:1000 in blocking solution with the exceptions of vinculin and phosphorylated aurora A-C, which were diluted 1:4000 and 1:500, respectively. Conjugated secondary antibodies were diluted 1:4000 in blocking solution. For blocking solution 5% milk in TBST (100 mM Tris-HCl ph 7.4, 0.1% Tween20, 150 mM NaCl in H2O) was used for p21, cyclin B1, vinculin, cleaved PARP and all secondary antibodies; 5% BSA in TBST was used for the primary antibodies phosphorylated aurora, and phosphorylated and total H3. Blots were developed on film and scanned into a computer at 300 dots per inch (dpi). Densitometric analyses were performed using ImageJ (Research Services Branch, National Institute of Mental Health).

| Compound | expression of phospho-histone H3 (pH3) |
| --- | --- |
| CCCC(CCC)C(=O)O [valproic acid] | decreased |
| O=C(CCCCCCC(=O)Nc1ccccc1)NO [vorinostat] | decreased |
| Cc1csc(-c2nnc(Nc3ccc(Oc4ncccc4-c4ccnc(N)n4)cc3)c3ccccc23)c1 [AMG 900, N-(4-((3-(2-amino-4-pyrimidinyl)-2-pyridinyl)oxy)phenyl)-4-(4-methyl-2-thienyl)-1-phthalazinamine] | decreased |
